Measurements published in patent publication US8563530B2, “Purine nucleoside phosphoramidate” (Gilead Pharmassel LLC, priority 2010, dated 2013).

Columns and labels:
[1] = system: HCV replicon RNA-containing Huh7 cells (clone A cells); assay: HCV replicon assay; type: cell-based; conditions: for Replicon assay result in combination with compound 1: synergism: assayed in combination with compound 1
Protocol: HCV replicon assay. HCV replicon RNA-containing Huh7 cells (clone A cells; Apath, LLC, St. Louis, Mo.) were kept at exponential growth in Dulbecco's modified Eagle's medium (high glucose) containing 10% fetal bovine serum, 4 mM L-glutamine and 1 mM sodium pyruvate, 1× nonessential amino acids, and G418 (1,000 μg/ml). Antiviral assays were performed in the same medium without G418. Cells were seeded in a 96-well plate at 1,500 cells per well, and test compounds were added immediately after seeding. Incubation time 4 days. At the end of the incubation step, total cellular RNA was isolated (RNeasy 96 kit; Qiagen). Replicon RNA and an internal control (TaqMan rRNA control reagents; Applied Biosystems) were amplified in a single-step multiplex RT-PCR protocol as recommended by the manufacturer.
To express the antiviral effectiveness of a compound, the threshold RT-PCR cycle of the test compound was subtracted from the average threshold RT-PCR cycle of the no-drug control (ΔCtHCV). A ΔCt of 3.3 equals a 1-log 10 reduction (equal to the 90% effective concentration [EC90]) in replicon RNA levels. The cytotoxicity of the test compound could also be expressed by calculating the ΔCtrRNA values. The ΔΔCt specificity parameter could then be introduced (ΔCtHCV−ΔCtrRNA), in which the levels of HCV RNA are normalized for the rRNA levels and calibrated against the no-drug control. Compound 1 was tested for its biological properties based on the preceding assay.

[2] = GVS analysis (hygroscopicity); type: physicochemical

## COc1nc(N)nc2c1ncn2[C@@H]1O[C@H](CO[P@@](=O)(N[C@@H](C)C(=O)OC(C)C)Oc2ccccc2)[C@@H](O)[C@@]1(C)F [Compound 1, SP-(2S)-isopropyl 2-(((((2R,3R,4R,5R)-5-(2-amino-6-methoxy-9H-purin-9-yl)-4-fluoro-3-hydroxy-4-methyltetrahydrofuran-2-yl)methoxy)(phenoxy)phosphoryl)amino)propanoate]
[1]; Hepatitis C virus, Huh-7, 96 h, clone A cells, incubation time 4 days, replicon RNA by RT-PCR, 1-log 10 reduction, read-out: CloneA EC90
  EC90: 20 nM

## COc1nc(N)nc2c1ncn2[C@@H]1O[C@H](CO[P@@](=O)(N[C@@H](C)C(=O)OC(C)C)Oc2ccccc2)[C@@H](O)[C@@]1(C)F.O [Compound 1.H2O, (S)-2-{(S)-[(1R,4R,5R)-5-(2-Amino-6-methoxy-purin-9-yl)-4-(R)-fluoro-3-hydroxy-4-methyl-tetrahydro-furan-2-ylmethoxy]-phenoxy-phosphorylamino}-propionic acid isopropyl ester monohydrate]
[2]
  GVS hygroscopicity: very low hygroscopicity
[2]; at 90% RH
  GVS reversible weight gain: 0.47 % w/w

## CC(C)(C)OC(=O)N[C@H]1CCCCC/C=C\[C@@H]2C[C@@]2(C(=O)NS(=O)(=O)C2CC2)NC(=O)[C@@H]2C[C@@H](OC(=O)N3Cc4cccc(F)c4C3)CN2C1=O [ITMN-191]
[1]
  Replicon assay result in combination with compound 1: synergism: synergism

## CC(C)OC(=O)[C@H](C)N[P@](=O)(OC[C@H]1O[C@@H](n2ccc(=O)[nH]c2=O)[C@](C)(F)[C@@H]1O)Oc1ccccc1 [compound E]
[1]
  Replicon assay result in combination with compound 1: synergism: synergism
